The values below come from patent US12697343B2, “Intravenous istaroxime for the treatment of acute heart failure” (Seismic Pharmaceuticals Operations LLC, priority 2021, dated 2026).

For data set [1] the following is noted: intravenous infusion; cited from earlier work.
In data set [2] the test system is patients hospitalized for acute heart failure (AHF). To be noted: intention-to-treat analysis, Carubelli et al., cited from earlier work.
For data set [3] the test system is unchanged. Also noted: species or system human. To be noted: in vivo. The procedure:
(§1) The primary efficacy endpoint was the change from baseline to 24 h after the start of the infusion in the E/e ratio assessed by tissue Doppler echocardiography. Secondary endpoints included the change from baseline to 24 h of other echocardiography parameters: LVEF, left ventricular end-systolic and end-diastolic volumes, stroke volume index, E, A, E/A ratio, and S′: changes in dyspnoea by visual analogue scale (VAS) and in NT-proBNP from baseline to 24 h: proportion of patients with hospital readmissions or emergency visits for cardiovascular reasons by day 30; proportion of patients with episodes of in-hospital worsening heart failure to day 4, and length of stay. […] Safety endpoints were assessed throughout the study and included: incidence of adverse events (AEs): change in vital signs and in 12-lead electrocardiographic (ECG) parameters: incidence of clinically or haemodynamically significant episodes of supraventricular or ventricular arrhythmias detected by continuous ECG monitoring: standard laboratory parameters: renal function: cardiac troponin T (cTnT): incidence of cTnT elevations, and mortality at day 30. […]
The study design included a 24 h screening period, a 24 h study drug infusion phase (day 1), a post-treatment phase (days 2-4), and a follow-up visit at day 30 (FIG. 5). […] AEs were monitored throughout the duration of the study.

Data set [4] concerns AHF patients with systolic blood pressure (SBP) of 90-150 mmHg. To be noted: 0.5, 1.0, and 1.5 μg/kg/min for 6 h; cited from earlier work.
The subject of data set [5] is patients hospitalized for acute heart failure (AHF). The data set can be described thus: NT-proBNP serial measurements (Elecsys proBNP II). The class given is in vivo, human. The procedure:
(§2) The primary efficacy endpoint was the change from baseline to 24 h after the start of the infusion in the E/e ratio assessed by tissue Doppler echocardiography. Secondary endpoints included the change from baseline to 24 h of other echocardiography parameters: LVEF, left ventricular end-systolic and end-diastolic volumes, stroke volume index, E, A, E/A ratio, and S′: changes in dyspnoea by visual analogue scale (VAS) and in NT-proBNP from baseline to 24 h: proportion of patients with hospital readmissions or emergency visits for cardiovascular reasons by day 30; proportion of patients with episodes of in-hospital worsening heart failure to day 4, and length of stay. In-hospital worsening heart failure was defined by the need to increase the dose or reinitiate intravenous therapy with diuretics and/or other inotropic agents to day 4. Safety endpoints were assessed throughout the study and included: incidence of adverse events (AEs): change in vital signs and in 12-lead electrocardiographic (ECG) parameters: incidence of clinically or haemodynamically significant episodes of supraventricular or ventricular arrhythmias detected by continuous ECG monitoring: standard laboratory parameters: renal function: cardiac troponin T (cTnT): incidence of cTnT elevations, and mortality at day 30. Elevations in cTnT were considered significant if they were >50% or >20% from baseline values, for patients with cTnT below or above the 99% upper reference limit at baseline, respectively.
(§3) The study design included a 24 h screening period, a 24 h study drug infusion phase (day 1), a post-treatment phase (days 2-4), and a follow-up visit at day 30 (FIG. 5). Patients could be enrolled at any time after admission. The use of oral medications was permitted during the study with the exception of digoxin. Intravenous diuretics were permitted during the treatment period at stable doses, unless changes were required due to clinically relevant variations of the patient's condition. If treatment with an inotrope was clinically necessary during the infusion period, the investigational product was discontinued. Echocardiography was performed according to international standards at screening, baseline (just before starting study drug infusion), 6, 24 h (just before infusion end), and 48 h after infusion start. Echocardiographic measurements at baseline, 6, 24, and 48 h were evaluated in a blinded fashion by a CoreLab located at the University and Civil Hospital of Brescia, Italy. E/e′ ratio was calculated as the ratio between the peak early diastolic mitral flow velocity (E wave) and the mean of the annular lateral (e′ lateral) and septal (e′ septal) velocities, according to standard guidelines.^20 Intraobserver and interobserver variability in E/e′ measurement was tested on the 15% of the recordings and is shown in FIG. 6. Self-reported dyspnoea was assessed using a 100 mm VAS, with zero representing the worst level of dyspnoea and […] the best breathing condition. Twenty-four hour ECG monitoring was performed using a three-lead device (Mortara industries, Milwaukee, WI, USA) during the day of screening, the infusion period, and the day after (the latter was optional). Analysis was conducted by a blinded CoreLab (ICS Maugeri, Italy). Serial measurements of NT-proBNP throughout the study were analyzed by a central laboratory (Elecsys® proBNP II, Roche®, Basel, Switzerland). Samples for cTnT were taken at baseline, 3, 6, 12, 24, 48, and 72 h and on day 30, and were analyzed by a core laboratory (Elecsys® high-sensitivity assay, Roche®, Basel, Switzerland). AEs were monitored throughout the duration of the study.
The study was designed as a mechanistic and safety study to assess the effects of a 24 h istaroxime infusion in patients hospitalized for AHF. […]

Data set [6] has the same test system. Also noted: species or system human. To be noted: in vivo. The procedure:
as §1
The study design included a 24 h screening period, a 24 h study drug infusion phase (day 1), a post-treatment phase (days 2-4), and a follow-up visit at day 30 (FIG. 5). […] AEs were monitored throughout the duration of the study. […]
The source holds these as a separate data set.

Data set [7] shares this test system. The data set can be described thus: Adverse events, serious adverse events, laboratory safety and mortality to day 30. In kind it is in vivo, human. Here is the method: as §2
as §3, with “Twenty-four hour ECG monitoring was performed using a three-lead device (Mortara industries, Milwaukee, WI, USA) during the day of screening, the infusion period, and the day after (the latter was optional). Analysis was conducted by a blinded CoreLab (ICS Maugeri, Italy).” left out, “study. […]” for “study.”

The mark [8] stands for this setting: istaroxime 1.0 μg/Kg/min (n = 40), 30-day follow-up period.

Counter-ions that a name gives are not always drawn. Like-named read-outs stand apart in the source and are kept apart here.

Regarding `C[C@]12CCC(=NOCCN)C[C@@H]1C(=O)C[C@@H]1[C@@H]2CC[C@]2(C)C(=O)CC[C@@H]12` [Istaroxime, (E,Z)-3-((2-aminoethoxy)imino)androstane-6,17-dione hydrochloride], the “half-time (washout after infusion termination)” value in data set [1] is reported as 60 min. The entries for the “mean change in E/e′ ratio at 24 h” value in data set [2] (0.5 μg/kg/min) and in data set [2] (1.0 μg/kg/min) were −4.55 (4.75) and −3.16 (2.59), respectively. In data set [3], the “clinically significant arrhythmias, 24 h Holter monitoring” value is given as “no differences”. The cardiac index entry in data set [4] is given as “increased only at the highest dose”. The “lusitropic effect assessed by increased mitral deceleration time” value in data set [4] is reported as “occurred only at the highest dose”. For the same compound, the “NT-proBNP, median change from baseline” value is 120 pg/mL in data set [5] (0.5 μg/Kg/min, 24 hours); -431 pg/mL in data set [5] (0.5 μg/Kg/min, 48 hours); -802 pg/mL in data set [5] (0.5 μg/Kg/min, 72 hours); -214 pg/mL in data set [5] (1.0 μg/Kg/min, 24 hours); -563 pg/mL in data set [5] (1.0 μg/Kg/min, 48 hours); -528 pg/mL in data set [5] (1.0 μg/Kg/min, 72 hours). In addition, the “cardiac troponin absolute values” in data set [6] is reported as “No significant changes”. Moreover, the “Mortality within the 30-day study period” value in data set [7] (1.0 μg/kg/min group, cardiogenic shock) is recorded as “One patient died”. The “rate of SAEs” value in data set [7] (in vivo) was “did not show meaningful differences”. The “rate of injection site reactions” value in data set [7] (in vivo, iv) is “high”. In data set [7] (setting [8]), the “Serious adverse events: Cardiac death” value was 1 number of patients. Besides, the “Serious adverse events: Cardiac death, percent of patients” value in data set [7] (setting [8]) is “(2.5) %”.
